Measurements from ChEMBL document CHEMBL2046376, “Synthesis and antimicrobial activity of amide derivatives of polyether antibiotic-salinomycin” (2012).

Experiments:
Type in all cases: functional
Staphylococcus aureus [1] = test: Antibacterial activity against Staphylococcus aureus ATCC 6538 after 18 hrs by twofold serial agar dilution technique; settings: ATCC 6538, 18 h
Staphylococcus aureus [2] = test: Antibacterial activity against Staphylococcus aureus NCTC 4163 after 18 hrs by twofold serial agar dilution technique; settings: NCTC 4163, 18 h
Proteus vulgaris [3] = test: Antibacterial activity against Proteus vulgaris NCTC 4635 assessed as zone of inhibition at 400 ug/disc after 18 hrs by disc diffusion method; settings: NCTC 4635, 18 h, read-out: DIZ
Escherichia coli [4] = test: Antibacterial activity against Escherichia coli ATCC 10538 assessed as zone of inhibition at 400 ug/disc after 18 hrs by disc diffusion method; settings: ATCC 10538, 18 h, read-out: DIZ
Candida parapsilosis = test: Antifungal activity against Candida parapsilosis ATCC 22019 after 24 hrs by twofold serial agar dilution technique; settings: Lodderomyces parapsilosis, ATCC 22019, 24 h
Pseudomonas aeruginosa [5] = test: Antibacterial activity against Pseudomonas aeruginosa ATCC 15442 assessed as zone of inhibition at 400 ug/disc after 18 hrs by disc diffusion method; settings: ATCC 15442, 18 h, read-out: DIZ
Pseudomonas aeruginosa [6] = test: Antibacterial activity against Pseudomonas aeruginosa ATCC 27853 after 18 hrs by twofold serial agar dilution technique; settings: ATCC 27853, 18 h
[7] = system: Bordetella bronchiseptica; test: Antibacterial activity against Bordetella bronchiseptica ATCC 4617 after 18 hrs by twofold serial agar dilution technique; settings: ATCC 4617, 18 h
Escherichia coli [8] = test: Antibacterial activity against Escherichia coli ATCC 10538 after 18 hrs by twofold serial agar dilution technique; settings: ATCC 10538, 18 h
[9] = system: Staphylococcus epidermidis; test: Antibacterial activity against Staphylococcus epidermidis ATCC 35984 after 18 hrs by twofold serial agar dilution technique; settings: ATCC 35984, 18 h
Staphylococcus aureus [10] = test: Antibacterial activity against Staphylococcus aureus ATCC 25923 after 18 hrs by twofold serial agar dilution technique; settings: ATCC 25923, 18 h
Escherichia coli [11] = test: Antibacterial activity against Escherichia coli ATCC 25922 assessed as zone of inhibition at 400 ug/disc after 18 hrs by disc diffusion method; settings: ATCC 25922, 18 h, read-out: DIZ
Staphylococcus aureus [12] = test: Antibacterial activity against Staphylococcus aureus ATCC 25923 assessed as zone of inhibition at 400 ug/disc after 18 hrs by disc diffusion method; settings: ATCC 25923, 18 h, read-out: DIZ
Escherichia coli [13] = test: Antibacterial activity against Escherichia coli NCTC 8196 assessed as zone of inhibition at 400 ug/disc after 18 hrs by disc diffusion method; settings: NCTC 8196, 18 h, read-out: DIZ
[14] = system: Staphylococcus epidermidis; test: Antibacterial activity against Staphylococcus epidermidis ATCC 12228 assessed as zone of inhibition at 400 ug/disc after 18 hrs by disc diffusion method; settings: ATCC 12228, 18 h, read-out: DIZ
Staphylococcus aureus [15] = test: Antibacterial activity against Staphylococcus aureus NCTC 4163 assessed as zone of inhibition at 400 ug/disc after 18 hrs by disc diffusion method; settings: NCTC 4163, 18 h, read-out: DIZ
Proteus vulgaris [16] = test: Antibacterial activity against Proteus vulgaris NCTC 4635 after 18 hrs by twofold serial agar dilution technique; settings: NCTC 4635, 18 h
Pseudomonas aeruginosa [17] = test: Antibacterial activity against Pseudomonas aeruginosa NCTC 6749 after 18 hrs by twofold serial agar dilution technique; settings: NCTC 6749, 18 h
[18] = system: Bordetella bronchiseptica; test: Antibacterial activity against Bordetella bronchiseptica ATCC 4617 assessed as zone of inhibition at 400 ug/disc after 18 hrs by disc diffusion method; settings: ATCC 4617, 18 h, read-out: DIZ
Staphylococcus aureus [19] = test: Antibacterial activity against Staphylococcus aureus ATCC 29213 assessed as zone of inhibition at 400 ug/disc after 18 hrs by disc diffusion method; settings: ATCC 29213, 18 h, read-out: DIZ
Candida albicans [20] = test: Antifungal activity against Candida albicans ATCC 10231 after 24 hrs by twofold serial agar dilution technique; settings: ATCC 10231, 24 h
[21] = system: Staphylococcus epidermidis; test: Antibacterial activity against Staphylococcus epidermidis ATCC 35984 assessed as zone of inhibition at 400 ug/disc after 18 hrs by disc diffusion method; settings: ATCC 35984, 18 h, read-out: DIZ
Staphylococcus aureus [22] = test: Antibacterial activity against Staphylococcus aureus ATCC 6538 assessed as zone of inhibition at 400 ug/disc after 18 hrs by disc diffusion method; settings: ATCC 6538, 18 h, read-out: DIZ
Candida albicans [23] = test: Antifungal activity against Candida albicans ATCC 90028 after 24 hrs by twofold serial agar dilution technique; settings: ATCC 90028, 24 h
Pseudomonas aeruginosa [24] = test: Antibacterial activity against Pseudomonas aeruginosa ATCC 27853 assessed as zone of inhibition at 400 ug/disc after 18 hrs by disc diffusion method; settings: ATCC 27853, 18 h, read-out: DIZ
Escherichia coli [25] = test: Antibacterial activity against Escherichia coli NCTC 8196 after 18 hrs by twofold serial agar dilution technique; settings: NCTC 8196, 18 h
Pseudomonas aeruginosa [26] = test: Antibacterial activity against Pseudomonas aeruginosa ATCC 15442 after 18 hrs by twofold serial agar dilution technique; settings: ATCC 15442, 18 h
Pseudomonas aeruginosa [27] = test: Antibacterial activity against Pseudomonas aeruginosa NCTC 6749 assessed as zone of inhibition at 400 ug/disc after 18 hrs by disc diffusion method; settings: NCTC 6749, 18 h, read-out: DIZ
Escherichia coli [28] = test: Antibacterial activity against Escherichia coli ATCC 25922 after 18 hrs by twofold serial agar dilution technique; settings: ATCC 25922, 18 h
[29] = system: Staphylococcus epidermidis; test: Antibacterial activity against Staphylococcus epidermidis ATCC 12228 after 18 hrs by twofold serial agar dilution technique; settings: ATCC 12228, 18 h
Staphylococcus aureus [30] = test: Antibacterial activity against Staphylococcus aureus ATCC 29213 after 18 hrs by twofold serial agar dilution technique; settings: ATCC 29213, 18 h

CC[C@@H](C(=O)[C@@H](C)[C@@H](O)[C@H](C)[C@@H]1O[C@@H]([C@@H](CC)C(=O)NCc2ccccc2)CC[C@@H]1C)[C@H]1O[C@]2(C=C[C@@H](O)[C@]3(CC[C@@](C)([C@H]4CC[C@](O)(CC)[C@H](C)O4)O3)O2)[C@H](C)C[C@@H]1C
MIC (Staphylococcus aureus [1]): ≥ 256 µg/mL | MIC (Staphylococcus aureus [2]): ≥ 256 µg/mL | zone of inhibition at 400 µg/disc (Proteus vulgaris [3]): 10 mm | zone of inhibition at 400 µg/disc (Escherichia coli [4]): 10 mm | MIC (Candida parapsilosis): ≥ 256 µg/mL | zone of inhibition at 400 µg/disc (Pseudomonas aeruginosa [5]): 10 mm | MIC (Pseudomonas aeruginosa [6]): ≥ 256 µg/mL | MIC [7]: ≥ 256 µg/mL | MIC (Escherichia coli [8]): ≥ 256 µg/mL | MIC [9]: ≥ 256 µg/mL | MIC (Staphylococcus aureus [10]): ≥ 256 µg/mL | zone of inhibition at 400 µg/disc (Escherichia coli [11]): 10 mm | zone of inhibition at 400 µg/disc (Staphylococcus aureus [12]): 10 mm | zone of inhibition at 400 µg/disc (Escherichia coli [13]): 10 mm | zone of inhibition at 400 µg/disc [14]: 10 mm | zone of inhibition at 400 µg/disc (Staphylococcus aureus [15]): 10 mm | MIC (Proteus vulgaris [16]): ≥ 256 µg/mL | MIC (Pseudomonas aeruginosa [17]): ≥ 256 µg/mL | zone of inhibition at 400 µg/disc [18]: 10 mm | zone of inhibition at 400 µg/disc (Staphylococcus aureus [19]): 10 mm | MIC (Candida albicans [20]): ≥ 256 µg/mL | zone of inhibition at 400 µg/disc [21]: 10 mm | zone of inhibition at 400 µg/disc (Staphylococcus aureus [22]): 10 mm | MIC (Candida albicans [23]): ≥ 256 µg/mL | zone of inhibition at 400 µg/disc (Pseudomonas aeruginosa [24]): 10 mm | MIC (Escherichia coli [25]): ≥ 256 µg/mL | MIC (Pseudomonas aeruginosa [26]): ≥ 256 µg/mL | zone of inhibition at 400 µg/disc (Pseudomonas aeruginosa [27]): 10 mm | MIC (Escherichia coli [28]): ≥ 256 µg/mL | MIC [29]: ≥ 256 µg/mL | MIC (Staphylococcus aureus [30]): ≥ 256 µg/mL

CC[C@@H](C(=O)[C@@H](C)[C@@H](O)[C@H](C)[C@@H]1O[C@@H]([C@@H](CC)C(=O)NCCc2c[nH]c3ccccc23)CC[C@@H]1C)[C@H]1O[C@]2(C=C[C@@H](O)[C@]3(CC[C@@](C)([C@H]4CC[C@](O)(CC)[C@H](C)O4)O3)O2)[C@H](C)C[C@@H]1C
MIC (Staphylococcus aureus [1]): ≥ 256 µg/mL | MIC (Staphylococcus aureus [2]): ≥ 256 µg/mL | zone of inhibition at 400 µg/disc (Proteus vulgaris [3]): 10 mm | zone of inhibition at 400 µg/disc (Escherichia coli [4]): 10 mm | MIC (Candida parapsilosis): ≥ 256 µg/mL | zone of inhibition at 400 µg/disc (Pseudomonas aeruginosa [5]): 10 mm | MIC (Pseudomonas aeruginosa [6]): ≥ 256 µg/mL | MIC [7]: ≥ 256 µg/mL | MIC (Escherichia coli [8]): ≥ 256 µg/mL | MIC [9]: ≥ 256 µg/mL | MIC (Staphylococcus aureus [10]): ≥ 256 µg/mL | zone of inhibition at 400 µg/disc (Escherichia coli [11]): 10 mm | zone of inhibition at 400 µg/disc (Staphylococcus aureus [12]): 10 mm | zone of inhibition at 400 µg/disc (Escherichia coli [13]): 10 mm | zone of inhibition at 400 µg/disc [14]: 10 mm | zone of inhibition at 400 µg/disc (Staphylococcus aureus [15]): 10 mm | MIC (Proteus vulgaris [16]): ≥ 256 µg/mL | MIC (Pseudomonas aeruginosa [17]): ≥ 256 µg/mL | zone of inhibition at 400 µg/disc [18]: 10 mm | zone of inhibition at 400 µg/disc (Staphylococcus aureus [19]): 10 mm | MIC (Candida albicans [20]): ≥ 256 µg/mL | zone of inhibition at 400 µg/disc [21]: 10 mm | zone of inhibition at 400 µg/disc (Staphylococcus aureus [22]): 10 mm | MIC (Candida albicans [23]): ≥ 256 µg/mL | zone of inhibition at 400 µg/disc (Pseudomonas aeruginosa [24]): 10 mm | MIC (Escherichia coli [25]): ≥ 256 µg/mL | MIC (Pseudomonas aeruginosa [26]): ≥ 256 µg/mL | zone of inhibition at 400 µg/disc (Pseudomonas aeruginosa [27]): 10 mm | MIC (Escherichia coli [28]): ≥ 256 µg/mL | MIC [29]: ≥ 256 µg/mL | MIC (Staphylococcus aureus [30]): ≥ 256 µg/mL

C=CCNC(=O)[C@H](CC)[C@H]1CC[C@H](C)[C@H]([C@@H](C)[C@H](O)[C@H](C)C(=O)[C@H](CC)[C@H]2O[C@]3(C=C[C@@H](O)[C@]4(CC[C@@](C)([C@H]5CC[C@](O)(CC)[C@H](C)O5)O4)O3)[C@H](C)C[C@@H]2C)O1 [SALINOMYCIN ALLYL AMIDE]
MIC (Staphylococcus aureus [1]): ≥ 256 µg/mL | MIC (Staphylococcus aureus [2]): ≥ 256 µg/mL | zone of inhibition at 400 µg/disc (Proteus vulgaris [3]): 10 mm | zone of inhibition at 400 µg/disc (Escherichia coli [4]): 10 mm | MIC (Candida parapsilosis): ≥ 256 µg/mL | zone of inhibition at 400 µg/disc (Pseudomonas aeruginosa [5]): 10 mm | MIC (Pseudomonas aeruginosa [6]): ≥ 256 µg/mL | MIC [7]: ≥ 256 µg/mL | MIC (Escherichia coli [8]): ≥ 256 µg/mL | MIC [9]: ≥ 256 µg/mL | MIC (Staphylococcus aureus [10]): ≥ 256 µg/mL | zone of inhibition at 400 µg/disc (Escherichia coli [11]): 10 mm | zone of inhibition at 400 µg/disc (Staphylococcus aureus [12]): 10 mm | zone of inhibition at 400 µg/disc (Escherichia coli [13]): 10 mm | zone of inhibition at 400 µg/disc [14]: 10 mm | zone of inhibition at 400 µg/disc (Staphylococcus aureus [15]): 10 mm | MIC (Proteus vulgaris [16]): ≥ 256 µg/mL | MIC (Pseudomonas aeruginosa [17]): ≥ 256 µg/mL | zone of inhibition at 400 µg/disc [18]: 10 mm | zone of inhibition at 400 µg/disc (Staphylococcus aureus [19]): 10 mm | MIC (Candida albicans [20]): ≥ 256 µg/mL | zone of inhibition at 400 µg/disc [21]: 10 mm | zone of inhibition at 400 µg/disc (Staphylococcus aureus [22]): 10 mm | MIC (Candida albicans [23]): ≥ 256 µg/mL | zone of inhibition at 400 µg/disc (Pseudomonas aeruginosa [24]): 10 mm | MIC (Escherichia coli [25]): ≥ 256 µg/mL | MIC (Pseudomonas aeruginosa [26]): ≥ 256 µg/mL | zone of inhibition at 400 µg/disc (Pseudomonas aeruginosa [27]): 10 mm | MIC (Escherichia coli [28]): ≥ 256 µg/mL | MIC [29]: ≥ 256 µg/mL | MIC (Staphylococcus aureus [30]): ≥ 256 µg/mL
